Test results reported in patent publication US20230257396A1, “MACROCYCLES AND THEIR USE” (BLOSSOMHILL THERAPEUTICS, INC., priority 2020, published 2023).

Tests used:
Assay in all cases: KINOMEscan kinase binding assay (Eurofins/DiscoveRx), % Ctrl
Conditions in all cases: 1 μM
kinases [1] = target: T1, kinases (Homo sapiens, UniProt P00519)
T1 construct: purchased Eurofins/DiscoveRx; host or cells: E. coli BL21-derived host (T7 phage display) for most kinases; HEK-293 for the rest
Summary of the method: (§1)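 Competition binding: DNA- or phage-tagged kinases (T7 phage in E. coli BL21, or HEK-293-expressed) with immobilized biotinylated ligand beads and test compound, 1 h at room temperature. Bead-bound kinase eluted and quantified by qPCR; % Ctrl = (compound − positive control)/(negative control − positive control) ×100 at a single compound concentration.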

kinases [2] = target: T2, kinases (Homo sapiens, UniProt P00519, F317L)
T2 construct: purchased Eurofins/DiscoveRx; host or cells: E. coli BL21-derived host (T7 phage display) for most kinases; HEK-293 for the rest
Summary of the method: as §1

kinases [3] = target: T3, kinases (Homo sapiens, UniProt P00519, Y253F)
T3 construct: purchased Eurofins/DiscoveRx; host or cells: E. coli BL21-derived host (T7 phage display) for most kinases; HEK-293 for the rest
Summary of the method: as §1

kinases [4] = target: T4, kinases (Homo sapiens, UniProt P00533, DEL746-750)
T4 construct: purchased Eurofins/DiscoveRx; host or cells: E. coli BL21-derived host (T7 phage display) for most kinases; HEK-293 for the rest
Summary of the method: as §1

kinases [5] = target: T5, kinases (Homo sapiens, UniProt P00533, DEL752-759)
T5 construct: purchased Eurofins/DiscoveRx; host or cells: E. coli BL21-derived host (T7 phage display) for most kinases; HEK-293 for the rest
Summary of the method: as §1

kinases [6] = target: T6, kinases (Homo sapiens, UniProt P00533, L858R)
T6 construct: purchased Eurofins/DiscoveRx; host or cells: E. coli BL21-derived host (T7 phage display) for most kinases; HEK-293 for the rest
Summary of the method: as §1

kinases [7] = target: T7, kinases (Homo sapiens, UniProt P00533, L858R/T790M)
T7 construct: purchased Eurofins/DiscoveRx; host or cells: E. coli BL21-derived host (T7 phage display) for most kinases; HEK-293 for the rest
Summary of the method: as §1

kinases [8] = target: T8, kinases (Homo sapiens, UniProt P10721, D816H)
T8 construct: purchased Eurofins/DiscoveRx; host or cells: E. coli BL21-derived host (T7 phage display) for most kinases; HEK-293 for the rest
Summary of the method: as §1

kinases [9] = target: T9, kinases (Homo sapiens, UniProt P35916)
T9 construct: purchased Eurofins/DiscoveRx; host or cells: E. coli BL21-derived host (T7 phage display) for most kinases; HEK-293 for the rest
Summary of the method: as §1

kinases [10] = target: T10, kinases (Homo sapiens, UniProt P36888, N841I)
T10 construct: purchased Eurofins/DiscoveRx; host or cells: E. coli BL21-derived host (T7 phage display) for most kinases; HEK-293 for the rest
T10 sequence (P36888 27-993 N841I): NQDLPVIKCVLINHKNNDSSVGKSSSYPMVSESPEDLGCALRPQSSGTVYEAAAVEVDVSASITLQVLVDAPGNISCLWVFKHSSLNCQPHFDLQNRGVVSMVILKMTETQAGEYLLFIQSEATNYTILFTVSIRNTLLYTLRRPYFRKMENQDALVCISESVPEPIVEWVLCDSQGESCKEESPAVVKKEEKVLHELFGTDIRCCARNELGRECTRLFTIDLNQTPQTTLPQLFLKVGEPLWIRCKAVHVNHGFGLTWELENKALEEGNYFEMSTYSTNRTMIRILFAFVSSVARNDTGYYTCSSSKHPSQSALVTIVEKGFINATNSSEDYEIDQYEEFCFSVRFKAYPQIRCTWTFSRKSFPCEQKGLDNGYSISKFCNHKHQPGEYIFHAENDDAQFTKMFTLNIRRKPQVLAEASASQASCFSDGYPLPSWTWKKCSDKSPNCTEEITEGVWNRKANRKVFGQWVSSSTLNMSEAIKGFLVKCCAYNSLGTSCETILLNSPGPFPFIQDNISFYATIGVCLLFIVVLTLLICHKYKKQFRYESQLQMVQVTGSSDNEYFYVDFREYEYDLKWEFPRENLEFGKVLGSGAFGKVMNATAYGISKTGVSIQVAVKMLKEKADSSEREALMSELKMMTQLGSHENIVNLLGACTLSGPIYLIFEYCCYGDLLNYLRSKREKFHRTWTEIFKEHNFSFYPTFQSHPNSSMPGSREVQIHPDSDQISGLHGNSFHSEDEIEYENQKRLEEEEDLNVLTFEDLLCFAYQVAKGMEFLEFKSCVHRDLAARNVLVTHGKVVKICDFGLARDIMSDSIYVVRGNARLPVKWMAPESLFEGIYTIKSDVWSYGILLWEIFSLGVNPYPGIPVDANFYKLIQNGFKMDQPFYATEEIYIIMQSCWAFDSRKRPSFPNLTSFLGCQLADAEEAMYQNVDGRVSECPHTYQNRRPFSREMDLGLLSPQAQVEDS
Summary of the method: as §1

T9 sequence (P35916 25-1363): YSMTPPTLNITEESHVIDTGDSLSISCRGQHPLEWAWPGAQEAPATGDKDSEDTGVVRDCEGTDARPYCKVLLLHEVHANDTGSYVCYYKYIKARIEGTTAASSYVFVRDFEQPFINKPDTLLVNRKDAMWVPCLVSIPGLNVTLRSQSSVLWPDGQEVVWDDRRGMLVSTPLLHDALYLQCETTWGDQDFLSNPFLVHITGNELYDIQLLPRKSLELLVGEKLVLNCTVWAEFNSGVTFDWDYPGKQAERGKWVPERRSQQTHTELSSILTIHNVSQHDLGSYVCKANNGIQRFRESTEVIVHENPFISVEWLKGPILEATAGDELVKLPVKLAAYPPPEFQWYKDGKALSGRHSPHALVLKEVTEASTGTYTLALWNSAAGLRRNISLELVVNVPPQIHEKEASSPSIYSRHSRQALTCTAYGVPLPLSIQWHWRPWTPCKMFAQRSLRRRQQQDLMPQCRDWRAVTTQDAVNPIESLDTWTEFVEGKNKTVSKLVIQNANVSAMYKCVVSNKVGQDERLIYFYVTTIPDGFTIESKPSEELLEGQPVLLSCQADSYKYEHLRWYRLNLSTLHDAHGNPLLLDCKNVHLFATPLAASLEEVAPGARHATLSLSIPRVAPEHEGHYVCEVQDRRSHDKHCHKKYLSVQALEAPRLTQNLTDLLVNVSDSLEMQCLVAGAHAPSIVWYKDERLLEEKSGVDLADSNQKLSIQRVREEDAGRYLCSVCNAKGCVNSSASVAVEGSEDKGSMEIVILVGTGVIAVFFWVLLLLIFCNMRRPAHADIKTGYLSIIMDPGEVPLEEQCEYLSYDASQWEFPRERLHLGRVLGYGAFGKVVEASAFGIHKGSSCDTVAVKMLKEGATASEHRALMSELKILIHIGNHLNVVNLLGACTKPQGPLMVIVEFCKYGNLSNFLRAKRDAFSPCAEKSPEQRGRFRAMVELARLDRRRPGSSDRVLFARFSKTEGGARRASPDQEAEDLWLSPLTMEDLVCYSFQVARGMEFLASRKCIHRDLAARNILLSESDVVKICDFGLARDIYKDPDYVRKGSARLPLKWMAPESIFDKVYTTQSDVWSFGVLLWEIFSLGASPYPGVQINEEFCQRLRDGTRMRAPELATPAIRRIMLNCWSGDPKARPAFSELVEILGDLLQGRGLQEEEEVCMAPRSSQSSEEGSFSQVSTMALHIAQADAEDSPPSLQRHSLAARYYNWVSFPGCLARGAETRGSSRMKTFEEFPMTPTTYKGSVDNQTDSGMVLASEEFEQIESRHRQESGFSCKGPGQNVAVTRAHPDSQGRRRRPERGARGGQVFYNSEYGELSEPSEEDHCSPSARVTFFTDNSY
T8 sequence (P10721 26-976 D816H): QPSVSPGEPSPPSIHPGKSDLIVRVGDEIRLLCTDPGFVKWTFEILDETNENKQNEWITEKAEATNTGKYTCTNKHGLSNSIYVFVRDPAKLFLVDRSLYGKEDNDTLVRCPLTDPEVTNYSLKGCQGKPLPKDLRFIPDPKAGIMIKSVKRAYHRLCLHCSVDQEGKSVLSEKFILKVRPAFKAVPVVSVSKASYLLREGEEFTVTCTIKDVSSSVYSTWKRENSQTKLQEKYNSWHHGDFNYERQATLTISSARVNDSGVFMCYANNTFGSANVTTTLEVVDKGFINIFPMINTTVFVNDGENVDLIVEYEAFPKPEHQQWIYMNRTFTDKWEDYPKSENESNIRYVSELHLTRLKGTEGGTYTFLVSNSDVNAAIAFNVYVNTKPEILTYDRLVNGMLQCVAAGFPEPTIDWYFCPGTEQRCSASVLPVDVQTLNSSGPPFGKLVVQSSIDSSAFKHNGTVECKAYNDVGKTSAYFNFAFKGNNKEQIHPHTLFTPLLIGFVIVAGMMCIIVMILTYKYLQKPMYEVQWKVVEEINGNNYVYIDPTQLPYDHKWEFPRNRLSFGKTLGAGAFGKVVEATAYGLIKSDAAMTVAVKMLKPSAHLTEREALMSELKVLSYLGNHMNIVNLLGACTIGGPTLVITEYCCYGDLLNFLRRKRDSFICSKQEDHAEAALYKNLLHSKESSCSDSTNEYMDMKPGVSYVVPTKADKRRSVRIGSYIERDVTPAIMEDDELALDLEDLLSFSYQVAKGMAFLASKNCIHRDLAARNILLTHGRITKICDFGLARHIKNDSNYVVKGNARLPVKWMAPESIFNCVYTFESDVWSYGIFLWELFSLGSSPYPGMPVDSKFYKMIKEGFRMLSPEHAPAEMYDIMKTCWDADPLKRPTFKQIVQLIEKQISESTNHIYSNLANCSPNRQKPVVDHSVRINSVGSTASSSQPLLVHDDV

SMILES | % Ctrl, ABL1-nonphosphorylated (kinases [1]; ABL1-nonphosphorylated) | % Ctrl, ABL1-phosphorylated (kinases [1]; ABL1-phosphorylated) | % Ctrl, ABL1(F317L)-nonphosphorylated (kinases [2]; ABL1(F317L)-nonphosphorylated) | % Ctrl, ABL1(F317L)-phosphorylated (kinases [2]; ABL1(F317L)-phosphorylated) | % Ctrl, ABL1(Y253F)-phosphorylated (kinases [3]; ABL1(Y253F)-phosphorylated) | % Ctrl, EGFR(E746-A750del) (kinases [4]; EGFR(E746-A750del)) | % Ctrl, EGFR(S752-I759del) (kinases [5]; EGFR(S752-I759del)) | % Ctrl, EGFR(L858R) (kinases [6]; EGFR(L858R)) | % Ctrl, EGFR(L858R, T790M) (kinases [7]; EGFR(L858R, T790M)) | % Ctrl, KIT(D816H) (kinases [8]; KIT(D816H)) | % Ctrl, FLT4 (kinases [9]; FLT4) | % Ctrl, FLT3(N841I) (kinases [10]; FLT3(N841I)) | further results
Cc1cc2c([nH]1)/C=C1\C(=O)Nc3cnc(cc31)-c1cn[nH]c1CNCCN(C)C2=O [Ex. 55, [3a(4)Z]-6,9-dimethyl-9,10,11,12,13,14-hexahydro-17,1-(azenometheno)pyrazolo[4,3-m]dipyrrolo[3,2-f:3′,4′-i][1,4]diazacyclopentadecine-3,8(2,5H)-dione] | – | – | – | – | – | – | – | – | – | – | – | – | % Ctrl, ABL1-nonphosphorylated (kinases [1]; target ABL1-nonphosphorylated): 10 % Ctrl; % Ctrl, ABL1-phosphorylated (kinases [1]; target ABL1-phosphorylated): 6 % Ctrl; % Ctrl, ABL1(F317L)-nonphosphorylated (kinases [2]; target ABL1(F317L)-nonphosphorylated): 24 % Ctrl; % Ctrl, ABL1(F317L)-phosphorylated (kinases [2]; target ABL1(F317L)-phosphorylated): 10 % Ctrl; % Ctrl, ABL1(Y253F)-phosphorylated (kinases [3]; target ABL1(Y253F)-phosphorylated): 3.1 % Ctrl; % Ctrl, EGFR(E746-A750del) (kinases [4]; target EGFR(E746-A750del)): 74 % Ctrl; % Ctrl, EGFR(S752-I759del) (kinases [5]; target EGFR(S752-I759del)): 84 % Ctrl; % Ctrl, EGFR(L858R) (kinases [6]; target EGFR(L858R)): 88 % Ctrl; % Ctrl, EGFR(L858R, T790M) (kinases [7]; target EGFR(L858R, T790M)): 35 % Ctrl; % Ctrl, KIT(D816H) (kinases [8]; target KIT(D816H)): 18 % Ctrl; % Ctrl, FLT4 (kinases [9]; target FLT4): 31 % Ctrl; % Ctrl, FLT3(N841I) (kinases [10]; target FLT3(N841I)): 0 % Ctrl
Cc1cc2c([nH]1)/C=C1\C(=O)Nc3ccc(cc31)O[C@@H](C)COCCN(C)C2=O [Ex. 92, [10S,16a(17)Z]-2,5,10-trimethyl-6,7,9,10-tetrahydro-1H-12,14-(ethanediylidene)dipyrrolo[3,2-i:3′,4′-l][1,4,7]dioxazacyclopentadecine-4,16(5H,15H)-dione] | 0 % Ctrl | 25 % Ctrl | 6.5 % Ctrl | 76 % Ctrl | 54 % Ctrl | 100 % Ctrl | 90 % Ctrl | 98 % Ctrl | 100 % Ctrl | 87 % Ctrl | 75 % Ctrl | 20 % Ctrl | –
Cc1cc2c([nH]1)/C=C1\C(=O)Nc3ccc(cc31)-c1cnn(C)c1COCCN(C)C2=O [Ex. 124, [3a(4)Z]-6,9,14-trimethyl-10,11,13,14-tetrahydro-2H-1,17-(ethanediylidene)pyrazolo[4,3-m]dipyrrolo[3,2-f:3′,4′-i][1,4]oxazacyclopentadecine-3,8(5H,9H)-dione] | 0 % Ctrl | 0 % Ctrl | 0 % Ctrl | 0.2 % Ctrl | 0 % Ctrl | 15 % Ctrl | 68 % Ctrl | 58 % Ctrl | 1.7 % Ctrl | 0.4 % Ctrl | 0.15 % Ctrl | 0 % Ctrl | –
Cc1cc2c([nH]1)/C=C1\C(=O)Nc3ccc(cc31)-c1cnn(C)c1CNCCN(C)C2=O [Ex. 125, [3a(4)Z]-6,9,14-trimethyl-9,10,11,12,13,14-hexahydro-1,17-(ethanediylidene)pyrazolo[4,3-m]dipyrrolo[3,2-f:3′,4′-i][1,4]diazacyclopentadecine-3,8(2H,5H)-dione] | 0 % Ctrl | 0 % Ctrl | 0 % Ctrl | 0.55 % Ctrl | 0 % Ctrl | 20 % Ctrl | 73 % Ctrl | 48 % Ctrl | 1.2 % Ctrl | 0.65 % Ctrl | 0.11 % Ctrl | 0 % Ctrl | –
Cc1cc2c([nH]1)/C=C1\C(=O)Nc3ccc(cc31)-c1cnn(C)c1CN(C)CCN(C)C2=O [Ex. 126, [3a(4)Z]-6,9,12,14-tetramethyl-9,10,11,12,13,14-hexahydro-1,17-(ethanediylidene)pyrazolo[4,3-m]dipyrrolo[3,2-f:3′,4′-i][1,4]diazacyclopentadecine-3,8(2H,5H)-dione] | 0 % Ctrl | 0.1 % Ctrl | 1.7 % Ctrl | 0 % Ctrl | 0.25 % Ctrl | 3.9 % Ctrl | 32 % Ctrl | 31 % Ctrl | 0.15 % Ctrl | 0 % Ctrl | 0 % Ctrl | 0 % Ctrl | –
Cc1cc2c([nH]1)/C=C1\C(=O)Nc3ccc(cc31)-c1c(C)n[nH]c1CNCCN(C)C2=O [Ex. 127, [3a(4)Z]-6,9,16-trimethyl-9,10,11,12,13,14-hexahydro-1,17-(ethanediylidene)pyrazolo[4,3-m]dipyrrolo[3,2-f:3′,4′-i][1,4]diazacyclopentadecine-3,8(2H,5H)-dione] | 0.05 % Ctrl | 0 % Ctrl | 4.1 % Ctrl | 0.8 % Ctrl | 0 % Ctrl | 13 % Ctrl | 57 % Ctrl | 47 % Ctrl | 2.3 % Ctrl | 60 % Ctrl | 2.1 % Ctrl | 0.35 % Ctrl | –
Cc1cc2c([nH]1)/C=C1\C(=O)Nc3ccc(cc31)-c1c(noc1C)COCCN(C)C2=O [Ex. 128, [3a(4)Z]-6,9,16-trimethyl-1,11-dihydro-2H,13H-1,17-(ethanediylidene)[1,4]oxazolo[4,3-m]dipyrrolo[3,2-f:3′,4′-i][1,4]oxazacyclopentadecine-3,8(5H,9H)-dione] | 60 % Ctrl | 51 % Ctrl | 85 % Ctrl | 58 % Ctrl | 49 % Ctrl | 86 % Ctrl | 98 % Ctrl | 88 % Ctrl | 48 % Ctrl | 87 % Ctrl | 45 % Ctrl | 36 % Ctrl | –
Cc1cc2c([nH]1)/C=C1\C(=O)Nc3ccc(cc31)OCCOCCNC2=O [Ex. 129, [16a(17)Z]-2-methyl-6,7,9,10-tetrahydro-1H-12,14-(ethanediylidene)dipyrrolo[3,2-i:3′,4′-l][1,4,7]dioxazacyclopentadecine-4,16(5H,15H)-dione] | 84 % Ctrl | 91 % Ctrl | 93 % Ctrl | 79 % Ctrl | 98 % Ctrl | 100 % Ctrl | 78 % Ctrl | 100 % Ctrl | 98 % Ctrl | 96 % Ctrl | 83 % Ctrl | 68 % Ctrl | –
